Measurements from patent publication US6248712A, “Urokinase-type plasminogen activator receptor” (Cancerforskningsfondet af 1989, priority 1995, dated 2001).

Experiments:
U937 cells = test: Fate of receptor-bound u-PA:PAI-1 complex on U937 cells; format: cell-based, human; conditions: 0.5 mM chloroquine
Protocol: Binding assay. […] The cells were then acid-treated in 50 mM glycine-HCl, 100 mM NaCl (pH 3) for 3 minutes at 4° C. and quickly neutralized with half a volume of 0.5 M Hepes, 100 mM NaCl (pH 7.4). […] Non-specific binding was determined in the presence of 100 nM unlabelled u-PA.
The basic experiment was carried out in two steps: first, labelled ligands were incubated with acid-washed cells at 4° C. for 90 minutes (step 1). […] In step 2, the cells were incubated at 37° C. for 3 hours in binding buffer containing no ligands. The amount and the state of the ligand were assayed by quantitation of the radioactivity (and the extent of TCA precipitability) at different times during step 2. To this end, both the radioactivity recovered in the cell-associated form and in the supernatant were measured.

HT-1080 cells [1] = test: Pro-u-PA index of cell-bound u-PA on HT-1080 cells in serum medium; format: cell-based, human; conditions: TA 100 μM with Plg 40 μg/ml and anti-PAI-1 antibody 10 μg/ml, 2 h at 37° C.
Protocol: Cell culture supernatants were assayed for pro-u-PA and active u-PA by the following modification of an immunocapture method (Stephens et al., 1988; Stephens et al., 1987). Microtitre wells of polystyrene immunoplates (type 269620, A/S Nunc, Roskilde, Denmark) were coated overnight at 37° C. with 50 μl of a solution of goat IgG antibodies to human u-PA (cat. # 398, American Diagnostica). The coating solution contained 2.5 μg of IgG per ml of 0.1 M sodium carbonate (pH 9.8). After rinsing, the wells were treated with conditioned medium ([…]) for 2 hours at 23° C., then rinsed again. […] This mixture was incubated for 30 minutes at 37° C., and the absorbancies of the wells were read at 405 nm. […]
Pro-u-PA and active u-PA bound to the cell layer were recovered for immunocapture assays by the same method as was used in the metabolic labelling (see above). […] For conditioned medium and cell-bound u-PA, the u-PA activity assayed after NPGB treatment was expressed as a percentage of the total activity obtained without NPGB treatment, and this percentage used as an index of pro-u-PA content (pro-u-PA index). […]

HT-1080 cells [2] = test: Plasmin binding to and release from HT-1080 cells; format: cell-based, human
Protocol: Plasmin release from HT-1080 cells into serum-free and serum-containing media. Confluent layers of HT-1080 cells were first loaded with plasmin by incubation for 1 hour at 37° C. in serum-free MEM medium (0.5 ml) containing human plasmin (0-5 μg/ml). After rinsing the cell layers three times, they were incubated for 2 hours at 37° C. with either serum-free medium (.smallcircle.--.smallcircle.), medium containing 10% heat-inactivated and plasminogen-depleted fetal calf serum (.circle-solid.--.circle-solid.), or the latter with tranexamic acid (100 μM) (.box-solid.--.box-solid.). Plasmin was then assayed in the cell-bound fraction (A) and the media (B).
In the Examples concerning plasmin binding to cells from medium, human plasmin (approximately 18 CU/mg; Kabi Diagnostica, Stockholm, Sweden) was added to the cultures at final concentrations of 0-5 μg/ml. The cells were incubated for 3 hours at 37° C. before assay of cell-bound and supernatant plasmin (see below). For plasmin release experiments, cells were loaded for 1 hour at 37° C. with 0-5 μg/ml plasmin in serum-free medium, then rinsed three times with MEM.
Plasmin bound to the cell layer was recovered and assayed as follows. […] Plasmin activity was assayed in eluate samples (50 μl) as above with an incubation time of 3 hours at 37° C.

HT-1080 cells [3] = test: u-PA activity in medium of HT-1080 cultures (immunocapture assay); format: cell-based; conditions: Homo sapiens, control = 100%; for activity at 10 µM: TA 10 μM with Plg 40 μg/ml; for activity at 100 µM: TA 100 μM with Plg 40 μg/ml
Protocol: S. et al., "Enzyme-linked immunosorbent assay for human urokinase-type plasminogen activators and its proenzyme using a combination of monoclonal and polyclonal antibodies", J. […] S. et al., "Monoclonal antibodies to human 54,000 molecular weight plasminogen activator inhibitor from fibrosarcoma cells--inhibitor neutralization and one-step affinity purification", Thromb. […] The coating solution contained 2.5 μg of IgG per ml of 0.1 M sodium carbonate (pH 9.8). After rinsing, the wells were treated with conditioned medium ([…]) for 2 hours at 23° C., then rinsed again. […] The other half (controls) received 50 μl of rinsing buffer (0.05% Tween 20 in PBS). […] The cultures were incubated for the times shown before assay of cell-bound plasmin.

plasmin [4] = target: T1, plasmin (Homo sapiens, UniProt P00747); test: Plasmin-catalysed activation of pro-u-PA in solution; format: biochemical; conditions: tranexamic acid 100 μM; unpublished results
plasmin [5] = target: T1, plasmin; test: Plasmin thioesterase assay (Z-lysine thiobenzyl ester); format: biochemical; conditions: tranexamic acid 1 mM
HT-1080 cells [6] = test: Formation of bound plasmin on HT-1080 cells in serum culture; format: cell-based, human; conditions: for Bound plasmin activity (%): 10% serum medium, Plg alone = 100%

T1 sequence (P00747 581-810 limits assumed): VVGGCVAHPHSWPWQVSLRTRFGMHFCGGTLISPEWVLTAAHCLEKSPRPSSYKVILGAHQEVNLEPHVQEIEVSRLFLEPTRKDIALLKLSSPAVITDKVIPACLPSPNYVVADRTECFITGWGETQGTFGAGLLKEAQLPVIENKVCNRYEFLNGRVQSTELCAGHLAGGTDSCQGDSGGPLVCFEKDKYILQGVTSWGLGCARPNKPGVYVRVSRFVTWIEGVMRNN
T1 sequence (P00747 97-580 limits assumed): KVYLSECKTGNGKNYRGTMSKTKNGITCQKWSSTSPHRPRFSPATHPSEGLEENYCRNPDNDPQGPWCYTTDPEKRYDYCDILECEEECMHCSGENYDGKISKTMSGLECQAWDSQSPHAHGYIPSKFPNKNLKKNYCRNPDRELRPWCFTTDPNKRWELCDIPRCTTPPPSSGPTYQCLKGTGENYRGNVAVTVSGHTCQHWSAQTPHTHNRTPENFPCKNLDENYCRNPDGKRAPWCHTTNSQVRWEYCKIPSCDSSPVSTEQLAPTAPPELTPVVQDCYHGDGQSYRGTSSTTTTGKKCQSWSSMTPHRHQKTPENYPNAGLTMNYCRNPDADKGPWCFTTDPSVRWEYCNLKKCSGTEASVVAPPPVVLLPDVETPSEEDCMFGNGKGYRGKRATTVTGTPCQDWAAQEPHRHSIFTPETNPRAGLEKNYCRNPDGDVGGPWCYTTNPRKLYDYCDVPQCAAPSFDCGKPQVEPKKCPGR

Row | Structure (SMILES) | Ability of the u-PA:PAI-1 complex to bind to the U937 cells (U937 cells) | Pro-u-PA index (%) (HT-1080 cells [1]) | Plasmin activity recovered from plasmin-loaded cells (HT-1080 cells [2]; 1 mM tranexamic acid in 10% serum medium, 2 h at 37° C.) | Binding of plasmin to the cells (HT-1080 cells [2]; tranexamic acid 100 μM) | activity at 10 µM (HT-1080 cells [3]; 3 h) | activity at 10 µM (HT-1080 cells [3]; 17 h) | activity at 100 µM (HT-1080 cells [3]; 3 h) | activity at 100 µM (HT-1080 cells [3]; 17 h) | Ability of plasmin to activate pro-u-PA in solution (plasmin [4]) | Effect on the thioesterase activity of plasmin (plasmin [5]) | Bound plasmin activity (%) (HT-1080 cells [6]; TA 10 μM with Plg 40 μg/ml, 3 h) | Bound plasmin activity (%) (HT-1080 cells [6]; TA 10 μM with Plg 40 μg/ml, 17 h) | Bound plasmin activity (HT-1080 cells [6]; TA 100 μM with Plg 40 μg/ml and anti-PAI-1 antibody 10 μg/ml, 2 h at 37° C.) | Bound plasmin activity (%) (HT-1080 cells [6]; TA 100 μM with Plg 40 μg/ml, 3 h) | Bound plasmin activity (%) (HT-1080 cells [6]; TA 100 μM with Plg 40 μg/ml, 17 h)
1 | CCN(CC)CCCC(C)Nc1ccnc2cc(Cl)ccc12 (stereo not drawn) [chloroquine] | does not affect | – | – | – | – | – | – | – | – | – | – | – | – | – | –
2 | NC[C@H]1CC[C@H](C(=O)O)CC1 [tranexamic acid] | – | 88% | no plasmin activity could be recovered | completely inhibits | 116% | 87% | 92% | 95% | does not affect | no effect | 9.7% | 34% | 0 ng | 2.2% | 13%
